Results: ChEMBL document CHEMBL3603790, “2- and 3-Fluoro-3-deazaneplanocins, 2-fluoro-3-deazaaristeromycins, and 3-methyl-3-deazaneplanocin: Synthesis and antiviral properties” (Bioorg Med Chem, 2015)
The source made the active and inactive calls. No cut-off for these calls is given here.

How the values were obtained:
[1] = Selectivity index, ratio of CC50 for African green monkey Vero 76 cells to IC50 for Tacaribe virus; assay type: functional
[2] = system: Respiratory syncytial virus; test: Antiviral activity against Respiratory syncytial virus infected in human HeLa cells after 3 days by neutral red dye-based plaque reduction assay; assay type: functional, organism-based
[3] = Selectivity index, ratio of CC50 for African green monkey Vero 76 cells to IC50 for Rift Valley fever virus; assay type: functional
[4] = Selectivity index, ratio of CC50 for HFF to IC50 for HCMV; assay type: functional
HeLa = test: Cytotoxicity against human HeLa cells; assay type: cell-based
[5] = Cytotoxicity against HFF; assay type: cell-based; conditions: human, HFF cells
[6] = system: Venezuelan equine encephalitis virus; test: Antiviral activity against Venezuelan equine encephalitis virus infected in African green monkey Vero cells after 3 days by neutral red dye-based plaque reduction assay; assay type: functional, organism-based
Influenza A virus [7] = test: Antiviral activity against Influenza A virus H1N1 infected in MDCK cells after 3 days by neutral red dye-based plaque reduction assay; assay type: functional, organism-based
Cowpox virus = test: Antiviral activity against Cowpox virus infected in HFF after 3 days by neutral red dye-based plaque reduction assay; assay type: functional, organism-based
[8] = Cytotoxicity against African green monkey Vero 76 cells relative to control; assay type: cell-based; conditions: chlorocebus sabaeus
Influenza A virus [9] = test: Antiviral activity against Influenza A virus H3N2 infected in MDCK cells after 3 days by neutral red dye-based plaque reduction assay; assay type: functional, organism-based
[10] = Cytotoxicity against MDCK cells relative to control; assay type: cell-based, Canis lupus familiaris; conditions: dog
[11] = Cytotoxicity against human HeLa Ohio-1 cells; assay type: cell-based
[12] = Selectivity index, ratio of CC50 for African green monkey Vero cells to IC50 for Dengue virus; assay type: functional
Influenza A virus [13] = test: Antiviral activity against Influenza A virus H5N1 infected in MDCK cells after 3 days by neutral red dye-based plaque reduction assay; assay type: functional, organism-based; conditions: 72 h
[14] = Cytotoxicity against African green monkey Vero 76 cells; assay type: cell-based; conditions: chlorocebus sabaeus; for CC50: Vero 76 cells
[15] = Cytotoxicity against MDCK cells; assay type: cell-based, Canis lupus familiaris; conditions: dog, MDCK cells
MA104 = test: Antiviral activity against Parainfluenza virus infected in monkey MA104 cells after 3 days by neutral red dye-based plaque reduction assay; assay type: functional, cell-based; conditions: Paramyxoviridae
unidentified adenovirus = test: Antiviral activity against Adenovirus infected in human A549 cells after 3 days by neutral red dye-based plaque reduction assay; assay type: functional, organism-based
A549 = test: Cytotoxicity against human A549 cells; assay type: cell-based
Enterovirus = test: Antiviral activity against Rhinovirus infected in human HeLa Ohio-1 cells after 3 days by neutral red dye-based plaque reduction assay; assay type: functional, organism-based
[16] = Cytotoxicity against monkey MA104 cells; assay type: cell-based, Macaca mulatta; conditions: rhesus monkey
Human betaherpesvirus 5 = test: Antiviral activity against HCMV infected in HFF after 3 days by neutral red dye-based plaque reduction assay; assay type: functional, organism-based; conditions: Human betaherpesvirus 5, 72 h
SARS-CoV = test: Antiviral activity against SARS coronavirus infected in African green monkey Vero E6 cells after 3 days by neutral red dye-based plaque reduction assay; assay type: functional, organism-based; conditions: Severe acute respiratory syndrome-related coronavirus
West Nile virus = test: Antiviral activity against WNV infected in African green monkey Vero 76 cells after 3 days by neutral red dye-based plaque reduction assay; assay type: functional, organism-based
Rift Valley fever virus = test: Antiviral activity against Rift Valley fever virus infected in African green monkey Vero 76 cells after 3 days by neutral red dye-based plaque reduction assay; assay type: functional, organism-based; conditions: for IC50: 72 h
[17] = Selectivity index, ratio of CC50 for MDCK cells to IC50 for Influenza B virus; assay type: functional
Tacaribe virus = test: Antiviral activity against Tacaribe virus infected in African green monkey Vero 76 cells after 3 days by neutral red dye-based plaque reduction assay; assay type: functional, organism-based; conditions: Mammarenavirus tacaribeense; for IC50: 72 h
[18] = system: Respiratory syncytial virus; test: Antiviral activity against Respiratory syncytial virus infected in monkey MA104 cells after 3 days by neutral red dye-based plaque reduction assay; assay type: functional, organism-based
[19] = Cytotoxicity against African green monkey Vero cells; assay type: cell-based; conditions: chlorocebus sabaeus, Vero cells
[20] = Inhibition of rabbit erythrocytic AdoHcy hydrolase using AdoHcy as substrate assessed as formation of L-homocysteine preincubated for 5 mins followed by substrate addition measured after 1 hr by thiol quantitation reagent-based assay; parameters: species or system Oryctolagus cuniculus
Vaccinia virus = test: Antiviral activity against Vaccinia virus infected in HEL cells after 3 days by neutral red dye-based plaque reduction assay; assay type: functional, organism-based; conditions: Orthopoxvirus vaccinia
[21] = Cytotoxicity against African green monkey Vero E6 cells; assay type: cell-based; conditions: chlorocebus sabaeus
[22] = Cytotoxicity against African green monkey Vero cells relative to control; assay type: cell-based; conditions: chlorocebus sabaeus
Dengue virus = test: Antiviral activity against Dengue virus infected in African green monkey Vero cells after 3 days by neutral red dye-based plaque reduction assay; assay type: functional, organism-based; conditions: for IC50: 72 h
HEL = test: Cytotoxicity against HEL cells; assay type: cell-based; conditions: human
[23] = Selectivity index, ratio of CC50 for MDCK cells to IC50 for Influenza A virus H5N1 virus; assay type: functional
Yellow fever virus = test: Antiviral activity against Yellow fever virus infected in African green monkey Vero cells after 3 days by neutral red dye-based plaque reduction assay; assay type: functional, organism-based; conditions: 72 h
Influenza B virus = test: Antiviral activity against Influenza B virus infected in MDCK cells after 3 days by neutral red dye-based plaque reduction assay; assay type: functional, organism-based; conditions: 72 h
[24] = Selectivity index, ratio of CC50 for African green monkey Vero cells to IC50 for Yellow fever virus; assay type: functional
Measles morbillivirus = test: Antiviral activity against Measles virus infected in African green monkey CV1 cells after 3 days by neutral red dye-based plaque reduction assay; assay type: functional, organism-based; conditions: CV-1, 72 h
[25] = Cytotoxicity against African green monkey CV1 cells; assay type: cell-based, CV-1; conditions: chlorocebus aethiops
Hepatitis B virus = test: Antiviral activity against HBV infected in human HepG22.2.15 cells after 3 days by neutral red dye-based plaque reduction assay; assay type: functional, organism-based; conditions: HepG2 2.2.15, 72 h
[26] = Cytotoxicity against human […] cells; assay type: cell-based
Hepatitis C virus = test: Antiviral activity against Hepatitis C virus infected in human Ava5 cells after 3 days by neutral red dye-based plaque reduction assay; assay type: functional, organism-based; conditions: Hepacivirus hominis
[27] = Selectivity index, ratio of CC50 for African green monkey CV1 cells to IC50 for Measles virus; assay type: functional, CV-1
[28] = Cytotoxicity against human Ava5 cells; assay type: cell-based

SMILES: Nc1ncc(F)c2c1ncn2[C@@H]1C=C(CO)[C@@H](O)[C@H]1O
- Ratio CC50/IC50 [1]: >317
- Activity [2]: inactive
- Ratio CC50/IC50 [3]: 5.6
- Ratio CC50/IC50 [4]: > 1040
- Activity (HeLa): Non-toxic
- CC50 [5]: > 300 µM
- Activity [6]: inactive
- Activity (Influenza A virus [7]): inactive
- Activity (Cowpox virus): inactive
- CC50 [8]: 114 µM
- Activity (Influenza A virus [9]): inactive
- CC50 [10]: > 357 µM
- Activity [11]: Non-toxic
- Ratio CC50/IC50 [12]: 5
- IC50 (Influenza A virus [13]): 1 µM
- CC50 [14]: 36 µM
- CC50 [15]: 32.5 µM
- Activity (MA104): inactive
- Activity (unidentified adenovirus): inactive
- Activity (A549): Non-toxic
- Activity (Enterovirus): inactive
- Activity [16]: Non-toxic
- IC50 (Human betaherpesvirus 5): 0.3 µM
- Activity (SARS-CoV): inactive
- Activity (West Nile virus): inactive
- IC50 (Rift Valley fever virus): 6.4 µM
- Ratio CC50/IC50 [17]: >1000
- IC50 (Tacaribe virus): < 0.36 µM
- Activity [18]: inactive
- CC50 [19]: 224 µM
- IC50 [20]: 0.0068 µM
- Activity (Vaccinia virus): inactive
- Activity [21]: Non-toxic
- CC50 [22]: 35.7 µM
- IC50 (Dengue virus): 7.1 µM
- Activity (HEL): Non-toxic
- Ratio CC50/IC50 [23]: 34
- IC50 (Yellow fever virus): > 224 µM
- IC50 (Influenza B virus): < 0.36 µM

SMILES: Nc1ncc(F)c2c1ncn2[C@@H]1C=C(CCO)[C@@H](O)[C@H]1O
- Ratio CC50/IC50 [1]: >560
- Activity [2]: inactive
- Ratio CC50/IC50 [3]: 2.6
- Ratio CC50/IC50 [4]: 759
- Activity (HeLa): Non-toxic
- CC50 [5]: > 300 µM
- Activity [6]: inactive
- Activity (Influenza A virus [7]): inactive
- Activity (Cowpox virus): inactive
- CC50 [8]: 190 µM
- Activity (Influenza A virus [9]): inactive
- CC50 [10]: > 340 µM
- Ratio CC50/IC50 [24]: >240
- Activity [11]: Non-toxic
- Ratio CC50/IC50 [12]: 7.3
- IC50 (Influenza A virus [13]): 139 µM
- CC50 [14]: 3.4 µM
- CC50 [15]: > 340 µM
- Activity (MA104): inactive
- Activity (unidentified adenovirus): inactive
- Activity (A549): Non-toxic
- Activity (Enterovirus): inactive
- Activity [16]: Non-toxic
- IC50 (Human betaherpesvirus 5): 5.1 µM
- Activity (SARS-CoV): inactive
- Activity (West Nile virus): inactive
- IC50 (Rift Valley fever virus): 1.3 µM
- Ratio CC50/IC50 [17]: >340
- IC50 (Tacaribe virus): < 0.34 µM
- Activity [18]: inactive
- CC50 [19]: > 340 µM
- IC50 [20]: 0.145 µM
- Activity (Vaccinia virus): inactive
- Activity [21]: Non-toxic
- CC50 [22]: 109 µM
- IC50 (Dengue virus): 15 µM
- Activity (HEL): Non-toxic
- Ratio CC50/IC50 [23]: >2.4
- IC50 (Yellow fever virus): 1.5 µM
- IC50 (Influenza B virus): 1 µM

SMILES: Nc1nc2c(ncn2COC(CO)CO)c(=O)[nH]1 [GANCICLOVIR]
- CC50 [5]: > 100 µM
- IC50 (Human betaherpesvirus 5): 3.6 µM

SMILES: Nc1cc2nc[nH]c2c(=O)[nH]1 [DEZAGUANINE]
- IC50 (Measles morbillivirus): 4.1 µM
- CC50 [25]: 250 µM

SMILES: Nc1ccn([C@@H]2CS[C@H](CO)O2)c(=O)n1 [LAMIVUDINE]
- IC50 (Hepatitis B virus): 0.039 µM
- CC50 [26]: 2180 µM

SMILES: Nc1nc(F)cc2c1ncn2[C@@H]1C[C@H](CO)[C@@H](O)[C@H]1O
- Activity (Hepatitis C virus): inactive
- Activity [2]: inactive
- IC50 (Measles morbillivirus): 9.6 µM
- Activity (HeLa): Non-toxic
- Ratio CC50/IC50 [27]: >37
- Activity [6]: inactive
- Ratio CC50/IC50 [24]: >170
- Activity ([14]; vero 76): Non-toxic
- Activity [16]: Non-toxic
- CC50 [25]: > 355 µM
- Activity (West Nile virus): inactive
- Activity (Rift Valley fever virus): inactive
- Activity (Tacaribe virus): inactive
- Activity [18]: inactive
- CC50 [19]: > 355 µM
- IC50 [20]: 3.32 µM
- Activity (Vaccinia virus): inactive
- Activity [28]: Non-toxic
- Activity (Dengue virus): inactive
- Activity (HEL): Non-toxic
- IC50 (Yellow fever virus): 2.1 µM

SMILES: Cc1cnc(N)c2ncn([C@@H]3C=C(CO)[C@@H](O)[C@H]3O)c12
- Ratio CC50/IC50 [1]: 72
- Activity [2]: inactive
- Ratio CC50/IC50 [4]: 38.6
- Activity (HeLa): Non-toxic
- CC50 [5]: 247 µM
- Activity [6]: inactive
- Activity (Influenza A virus [7]): inactive
- Activity (Cowpox virus): inactive
- CC50 [8]: 83.3 µM
- Activity (Influenza A virus [9]): inactive
- CC50 [10]: > 362 µM
- Ratio CC50/IC50 [24]: >100
- Activity [11]: Non-toxic
- IC50 (Influenza A virus [13]): 76 µM
- CC50 [14]: 36 µM
- CC50 [15]: 250 µM
- Activity (MA104): inactive
- Activity (unidentified adenovirus): inactive
- Activity (A549): Non-toxic
- Activity (Enterovirus): inactive
- Activity [16]: Non-toxic
- IC50 (Human betaherpesvirus 5): 6.4 µM
- Activity (SARS-CoV): inactive
- Activity (West Nile virus): inactive
- IC50 (Rift Valley fever virus): > 36 µM
- Ratio CC50/IC50 [17]: >320
- IC50 (Tacaribe virus): 1.2 µM
- Activity [18]: inactive
- CC50 [19]: > 362 µM
- IC50 [20]: 0.041 µM
- Activity (Vaccinia virus): inactive
- Activity [21]: Non-toxic
- CC50 [22]: 228 µM
- IC50 (Dengue virus): > 228 µM
- Activity (HEL): Non-toxic
- Ratio CC50/IC50 [23]: 3.3
- IC50 (Yellow fever virus): 3.6 µM
- IC50 (Influenza B virus): 1.1 µM

SMILES: NC(=O)c1ncn([C@@H]2O[C@H](CO)[C@@H](O)[C@H]2O)n1 [RIBAVIRIN]
- CC50 [8]: > 1000 µM
- CC50 [10]: > 100 µM
- CC50 [14]: > 1000 µM
- IC50 (Rift Valley fever virus): 37.3 µM
- IC50 (Tacaribe virus): 26.7 µM
- IC50 (Influenza B virus): 9 µM
